Among the data in patent US9029364B2, “2,5-disubstituted thiomorpholine orexin receptor antagonists” (Merck Sharp & Dohme Corp., priority 2011, dated 2015) are Ki values, retold here.

Sequence of human orexin-2 receptor (O43614 whole entry): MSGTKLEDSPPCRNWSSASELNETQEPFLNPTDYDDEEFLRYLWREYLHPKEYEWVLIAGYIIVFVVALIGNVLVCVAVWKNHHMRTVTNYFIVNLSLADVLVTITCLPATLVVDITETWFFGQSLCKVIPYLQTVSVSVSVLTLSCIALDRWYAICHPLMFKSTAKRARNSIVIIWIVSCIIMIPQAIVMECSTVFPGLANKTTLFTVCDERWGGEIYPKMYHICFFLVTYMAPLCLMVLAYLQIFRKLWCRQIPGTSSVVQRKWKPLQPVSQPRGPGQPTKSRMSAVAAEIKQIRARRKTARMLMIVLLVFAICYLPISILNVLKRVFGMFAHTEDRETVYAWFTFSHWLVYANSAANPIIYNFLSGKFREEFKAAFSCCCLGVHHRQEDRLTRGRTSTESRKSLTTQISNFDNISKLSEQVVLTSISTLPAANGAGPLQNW

In the experiment the target is human orexin-2 receptor (Homo sapiens (Human), UniProt O43614). Description: radioligand binding assay, orexin-2 receptor (hOX2 Bind hKi). Particulars: membranes from CHO cells expressing OX2 receptor. The protocol:
In a typical experiment the OX1 and OX2 receptor antagonistic activity of the compounds of the present invention was determined in accordance with the following experimental method. For intracellular calcium measurements, Chinese hamster ovary (CHO) cells expressing the rat orexin-1 receptor or the human orexin-2 receptor, are grown in Iscove's modified DMEM containing 2 mM L-glutamine, […], 1% hypoxanthine-thymidine supplement, 100 U/ml penicillin, 100 μg/ml streptomycin and 10% heat-inactivated fetal calf serum (FCS). The cells are seeded at 20,000 cells/well into Becton-Dickinson black 384-well clear bottom sterile plates coated with poly-D-lysine. All reagents were from GIBCO-Invitrogen Corp. The seeded plates are incubated overnight at 37° C. and 5% CO2. Ala-6,12 human orexin-A as the agonist is prepared as a 1 mM stock solution in 1% bovine serum albumin (BSA) and diluted in assay buffer (HBSS containing 20 mM HEPES, 0.1% BSA and 2.5 mM probenecid, pH7.4) for use in the assay at a final concentration of 70 pM. Test compounds are prepared as 10 mM stock solution in DMSO, then diluted in 384-well plates, first in DMSO, then assay buffer. On the day of the assay, cells are washed 3 times with 100 μl assay buffer and then incubated for 60 min (37° C., 5% CO2) in 60 μl assay buffer containing 1 μM Fluo-4AM ester, 0.02% pluronic acid, and 1% BSA. The dye loading solution is then aspirated and cells are washed 3 times with 100 μl assay buffer. 30 μl of that same buffer is left in each well. Within the Fluorescent Imaging Plate Reader (FLIPR, Molecular Devices), test compounds are added to the plate in a volume of 25 μl, incubated for 5 min and finally 25 μl of agonist is added. Fluorescence is measured for each well at 1 second intervals for 5 minutes and the height of each fluorescence peak is compared to the height of the fluorescence peak induced by 70 pM Ala-6,12 orexin-A with buffer in place of antagonist. For each antagonist, IC50 value (the concentration of compound needed to inhibit 50% of the agonist response) is determined. Alternatively, compound potency can be assessed by a radioligand binding assay (described in Bergman et. al. Bioorg. Med. Chem. Lett. 2008, 18, 1425-1430) in which the inhibition constant (Ki) is determined in membranes prepared from CHO cells expressing either the OX1 or OX2 receptor. The intrinsic orexin receptor antagonist activity of a compound which may be used in the present invention may be determined by these assays.
The following tables show representative data for the compounds of the Examples as orexin receptor antagonists as determined by the foregoing assays wherein the hOX2 Ki is a measure of the ability of the test compound to inhibit the action of the human orexin-2 receptor and the hOX1R is a measure of the ability of the test compound to inhibit the action of the rat orexin-1 receptor.
As to `Cc1ccc(-n2nccn2)c(C(=O)N2C[C@H](COc3ccc(F)cn3)SC[C@H]2C)c1` [Example 1, [(2R,5R)-2-{[(5-Fluoropyridin-2-yl)oxy]methyl}-5-methylthiomorpholin-4-yl][5-methyl-2-(2H-1,2,3-triazol-2-yl)phenyl]methanone], the affinity, expressed as Ki, was 0.38 nM. This lies in the sub-nanomolar range. The result for `C[C@@H]1CS[C@@H](COc2ccccn2)CN1C(=O)c1ccccc1-n1nccn1` [Example 2, (2R,5R)-5-methyl-2-[(pyridin-2-yloxy)methy1]-4-{[2-(2H-1,2,3-triazol-2-yl)phenyl]carbonyl} thiomorpholine] reads 15.3 nM. In the case of `C[C@@H]1CS[C@@H](COc2ccc(F)cn2)CN1C(=O)c1ccccc1-n1nccn1` [Example 3, (2R,5R)-2-{[(5-fluoropyridin-2-yl)oxy]methyl}-5-methy1-4-{[2-(2H-1,2,3-triazol-2-yl)phenyl]carbonyl} thiomorpholine], the Ki (as a rule, a dissociation constant, usually derived from enzyme kinetics or from competition with a known ligand) came out at 0.9 nM. `Cc1ccc(OC[C@H]2CN(C(=O)c3ccccc3-n3nccn3)[C@H](C)CS2)nc1` [Example 4, (2R,5R)-5-methyl-2-{[(5-methylpyridin-2-yl)oxy]methyl}-4-{[2-(2H-1,2,3-triazol-2-yl)phenyl]carbonyl} thiomorpholine] came in with a Ki of 9.7 nM. The molecule `C[C@@H]1CS[C@@H](COc2ccc(Cl)cn2)CN1C(=O)c1ccccc1-n1nccn1` [Example 5, (2R,5R)-2-{[(5-chloropyridin-2-yl)oxy]methyl}-5-methyl-4-{[2-(2H-1,2,3-triazol-2-yl)phenyl]carbonyl} thiomorpholine] yielded a Ki of 1.7 nM. This Ki is about 5.7-fold lower than that of the molecule before. `C[C@@H]1CS[C@@H](COc2ccc(C#N)cn2)CN1C(=O)c1ccccc1-n1nccn1` [Example 6, 6-{[(2R,5R)-5-methy1-4-{[2-(2H-1,2,3-triazol-2-yl)phenyl]carbonyl}thiomorpholin-2-yl]methoxy}pyridine-3-carbonitrile] had a Ki of 47 nM. Molecule `C[C@@H]1CS[C@@H](COc2ccc(C(F)(F)F)cn2)CN1C(=O)c1ccccc1-n1nccn1` [Example 7, (2R,5R)-5-methyl-4-{[2-(2H-1,2,3-triazol-2-yl)phenyl]carbonyl}-2-({[5-(trifluoromethyl)pyridin-2-yl]oxy}methyl)thiomorpholine] gave a Ki of 66 nM.

As for `C[C@@H]1CS[C@@H](COc2ncccc2Cl)CN1C(=O)c1ccccc1-n1nccn1` [Example 8, (2R,5R)-2-{[(3-chloropyridin-2-yl)oxy]methyl}-5-methyl-4-{[2-(2H-1,2,3-triazol-2-yl)phenyl]carbonyl} thiomorpholine], the affinity corresponds to a Ki of 2.5 nM. For `C[C@@H]1CS[C@@H](COc2ncccc2C#N)CN1C(=O)c1ccccc1-n1nccn1` [Example 9, 2-{[(2R,5R)-5-methy1-4-{[2-(2H-1,2,3-triazol-2-yl)phenyl]carbonyl}thiomorpholin-2-yl]methoxy}pyridine-3-carbonitrile] the value was 150 nM; for `Cc1ccnc(OC[C@H]2CN(C(=O)c3ccccc3-n3nccn3)[C@H](C)CS2)c1` [Example 10, (2R,5R)-5-methyl-2-{[(4-methylpyridin-2-yl)oxy]methyl}-4-{[2-(2H-1,2,3-triazol-2-yl)phenyl]carbonyl} thiomorpholine], 192 nM. As to `C[C@@H]1CS[C@@H](COc2ncccn2)CN1C(=O)c1ccccc1-n1nccn1` [Example 11, (2R,5R)-5-methyl-2-[(pyrimidin-2-yloxy)methy1]-4-{[2-(2H-1,2,3-triazol-2-yl)phenyl]carbonyl} thiomorpholine], the Ki was greater than 4650 nM. On to `Cc1nc(OC[C@H]2CN(C(=O)c3ccccc3-n3nccn3)[C@H](C)CS2)ncc1Cl` [Example 12, (2R,5R)-2-{[(5-chloro-4-methylpyrimidin-2-yl)oxy]methyl}-5-methyl-4-{[2-(2H-1,2,3-triazol-2-yl)phenyl]carbonyl} thiomorpholine], for which the Ki is 32 nM. Molecule `Cc1cnc(OC[C@H]2CN(C(=O)c3ccccc3-n3nccn3)[C@H](C)CS2)nc1Cl` [Example 13, (2R,5R)-2-{[(4-chloro-5-methylpyrimidin-2-yl)oxy]methyl}-5-methyl-4-{[2-(2H-1,2,3-triazol-2-yl)phenyl]carbonyl} thiomorpholine] came in with a Ki of 7.4 nM. `COc1cnc(OC[C@H]2CN(C(=O)c3ccccc3-n3nccn3)[C@H](C)CS2)nc1Cl` [Example 14, (2R,5R)-2-{[(4-chloro-5-methoxypyrimidin-2-yl)oxy]methyl}-5-methyl-4-{[2-(2H-1,2,3-triazol-2-yl)phenyl]carbonyl} thiomorpholine] displayed a Ki of 155 nM.

For the molecule `C[C@@H]1C[S+]([O-])[C@@H](COc2ccc(F)cn2)CN1C(=O)c1ccccc1-n1nccn1` (stereo partly drawn) [Example 15, [(2R,5R)-2-{[(5-Fluoropyridin-2-yl)oxy]methyl}-5-methyl-1-oxidothiomorpholin-4-yl][2-(2H-1,2,3-triazol-2-yl)phenyl]methanone], the Ki is 170 nM. This Ki and that of the molecule before are within 1.5-fold of each other. Molecule `C[C@@H]1CS[C@@H](CSc2ccccn2)CN1C(=O)c1ccccc1-n1nccn1` [Example 17, {(2R,5R)-5-Methyl-2-[(pyridine-2-ylsulfanyl)methyl]thiomorpholin-4-yl}[2-(2H-1,2,3-triazol-2-yl)phenyl]methanone] returned a Ki of 98 nM.
